Data reported in patent publication US20110124666A1, “3,4-DIHYDROPYRIMIDINE TRPA1 ANTAGONISTS” (Janssen Pharmaceutica NV a corporation, priority 2008, published 2011).

System: not given
Experiment: not given
Settings: not given

melting point [°C]	Structure (SMILES)
295.22	COc1cccc(C2NC(=S)NC3=C2C(=O)c2ccccc23)c1 (stereo not shown) [Co. No. 1]
252.73	COc1cccc([C@H]2NC(=S)NC3=C2C(=O)c2ccccc23)c1 [Co. No. 2]
253.6	COc1cccc([C@@H]2NC(=S)NC3=C2C(=O)c2ccccc23)c1 [Co. No. 3]
188.65	COc1cccc(C2NC(=O)N(Cc3ccccc3)C3=C2C(=O)c2ccccc23)c1 (stereo not shown) [Co. No. 4]
287.08	COc1cc(OC)cc(C2NC(=S)NC3=C2C(=O)c2ccccc23)c1 (stereo not shown) [Co. No. 5]
288.04	O=C1C2=C(NC(=S)NC2c2cccc(O)c2)c2ccccc21 (stereo not shown) [Co. No. 6]
289.27	COc1ccc(F)c(C2NC(=S)NC3=C2C(=O)c2ccccc23)c1 (stereo not shown) [Co. No. 10]
289.34	O=C1C2=C(NC(=S)NC2c2cccc3c2OCO3)c2ccccc21 (stereo not shown) [Co. No. 12]
261.08	O=C1C2=C(NC(=S)NC2c2cccc(OCCO)c2)c2ccccc21 (stereo not shown) [Co. No. 13]
265.63	O=C1C2=C(NC(=S)NC2c2cccc(CO)c2)c2ccccc21 (stereo not shown) [Co. No. 14]
295.33	COc1ccc(OC)c(C2NC(=S)NC3=C2C(=O)c2ccccc23)c1 (stereo not shown) [Co. No. 15]
287.05	COc1cccc(C2NC(=S)NC3=C2C(=O)c2ccccc23)c1F (stereo not shown) [Co. No. 16]
206.47	COCCCOc1cccc([C@H]2NC(=O)NC3=C2C(=O)c2ccccc23)c1 [Co. No. 18]
207.44	COCCCOc1cccc([C@@H]2NC(=O)NC3=C2C(=O)c2ccccc23)c1 [Co. No. 19]
269.04	COc1ccc(Oc2cccc(C3NC(=S)NC4=C3C(=O)c3ccccc34)c2)cc1 (stereo not shown) [Co. No. 20]
243.58	CCN(CC)CCOc1cccc(C2NC(=S)NC3=C2C(=O)c2ccccc23)c1 (stereo not shown) [Co. No. 22]
245.01	O=C1C2=C(NC(=S)NC2c2cccc(OCCCOc3ccc(F)cc3)c2)c2ccccc21 (stereo not shown) [Co. No. 23]
237.9	CN(C)CCCOc1cccc(C2NC(=S)NC3=C2C(=O)c2ccccc23)c1 (stereo not shown) [Co. No. 24]
224.49	O=C1C2=C(NC(=S)NC2c2cccc(OCCCCO)c2)c2ccccc21 (stereo not shown) [Co. No. 25]
199.5	CC(=O)OCCCCOc1cccc(C2NC(=S)NC3=C2C(=O)c2ccccc23)c1 (stereo not shown) [Co. No. 26]
286.94	COc1cccc(C2C3=C(NC(=S)N2C)c2ccccc2C3=O)c1 (stereo not shown) [Co. No. 27]
149.46	O=C1C2=C(NC(=S)NC2c2cccc(-c3ccc(C(F)(F)F)cc3)c2)c2ccccc21 (stereo not shown) [Co. No. 31]

Structure (SMILES)	melting point [°C]
O=C1C2=C(NC(=S)NC2c2cncc(Br)c2)c2ccccc21 (stereo not shown)	294.61

Biological target: T1, hTRPA1 (Homo sapiens, UniProt O75762)
T1 construct: expressed in transfected cells
T1 sequence (O75762 whole entry): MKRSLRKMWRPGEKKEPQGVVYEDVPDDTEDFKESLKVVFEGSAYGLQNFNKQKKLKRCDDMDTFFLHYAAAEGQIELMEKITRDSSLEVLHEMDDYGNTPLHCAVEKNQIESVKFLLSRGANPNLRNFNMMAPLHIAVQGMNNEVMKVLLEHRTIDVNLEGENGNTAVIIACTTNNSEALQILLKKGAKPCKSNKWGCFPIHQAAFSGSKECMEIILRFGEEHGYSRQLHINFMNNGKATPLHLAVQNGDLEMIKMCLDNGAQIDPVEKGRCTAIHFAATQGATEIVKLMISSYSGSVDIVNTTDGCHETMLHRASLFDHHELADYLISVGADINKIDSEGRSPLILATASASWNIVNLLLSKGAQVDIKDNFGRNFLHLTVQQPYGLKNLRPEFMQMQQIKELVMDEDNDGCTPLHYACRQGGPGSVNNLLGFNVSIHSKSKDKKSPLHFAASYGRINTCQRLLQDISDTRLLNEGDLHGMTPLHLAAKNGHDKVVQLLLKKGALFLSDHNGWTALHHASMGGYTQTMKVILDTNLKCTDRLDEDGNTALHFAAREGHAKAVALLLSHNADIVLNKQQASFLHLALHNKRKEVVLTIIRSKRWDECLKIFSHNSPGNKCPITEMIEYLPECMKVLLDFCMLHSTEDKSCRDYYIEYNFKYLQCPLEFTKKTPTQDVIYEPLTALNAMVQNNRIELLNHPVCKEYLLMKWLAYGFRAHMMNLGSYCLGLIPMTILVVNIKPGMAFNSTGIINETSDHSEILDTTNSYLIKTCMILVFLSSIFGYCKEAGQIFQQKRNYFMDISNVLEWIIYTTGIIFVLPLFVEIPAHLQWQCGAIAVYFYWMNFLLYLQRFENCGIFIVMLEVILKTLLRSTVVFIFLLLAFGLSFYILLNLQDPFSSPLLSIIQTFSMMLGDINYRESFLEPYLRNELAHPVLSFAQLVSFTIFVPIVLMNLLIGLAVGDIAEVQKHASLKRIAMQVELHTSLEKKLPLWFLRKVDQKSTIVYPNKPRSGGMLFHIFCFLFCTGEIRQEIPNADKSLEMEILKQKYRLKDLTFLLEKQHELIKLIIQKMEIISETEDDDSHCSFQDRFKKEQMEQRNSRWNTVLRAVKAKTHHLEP
Experiment: Ca2+ fluorometry TRPA1 antagonism in hTRPA1/TREx-HEK293 cells (FDSS)
Assay type: cell-based
Settings: 11H-dibenzo[b,e]azepine-10-carboxylic acid methyl ester as TRPA1 agonist (25 nM), hTRPA1-HEK cells, Fluo4-AM
Source text: The Human TRPA1 gene was cloned into the pT-REx-Dest30 inducible vector and afterwards stably transfected in T-Rex^TM-293 cells (purchased from Invitrogen, Merelbeke, Belgium). This tetracyclin inducible hTRPA1 expression system was used in order to prevent Ca^2+ overload in the cultured cells due to sustained TRPA1 expression. hTRPAl/TREx-HEK293 cells (referred to as hTRPA1 cells in the following text) were maintained under standard sterile cell culture conditions.
Binding of an agonist to the TRPA1 ion-channel activates and opens the ion-channel which causes a robust increase in intracellular Ca^2+ concentration. For detecting and measuring intracellular Ca^2+ concentration, cells were loaded with a Ca^2+-sensitive dye. Changes in fluorescence in the cell, that correspond to changes in Ca^2+ concentration in the cell, can kinetically be monitored with the FDSS instrument (Hamamatsu) and are indicative for agonism towards the TRPA1 ion channel and this can be reduced by TRPA1-receptor antagonists.
The cells were seeded in poly-D-lysine-coated 384-well round bottom polypropylene plates (Costar Corning, Data Packaging, Cambridge Mass., USA) at 12000 cells/well. 50 ng/ml tetracycline was added to induce the hTRPA1 expression 24 h before the experiment.
The cells were loaded with 5 mg/l Fluo4-AM (Molecular Probes, Invitrogen, Merelbeke, Belgium) dissolved in HBSS seeding medium supplemented with 0.7 g/l Probenecid (Sigma) and incubated for 1 h at 37° C. and subsequently at 20° C. for 1 to 2 h. The fluorescence was measured in the FDSS 6000 imaging based plate reader (Hamamutsu Photonics K.K., Hamamutsu City, Japan). The excitation wavelength was 488 nm and the emission wavelength 540 nm. After a control period of 12 seconds the JNJ compounds were added and the Ca^2+ signal was measured within 14 minutes after application. Finally, the control TRPA1 agonist 11H-dibenzo[b,e]azepine-10-carboxylic acid methyl ester [the synthesis of which is hereafter described as compound (D-6)] or BITC (benzylisothiocyanate, FLUKA) was added at a final concentration of 25 nM. […] The emission ratio was calculated by dividing the emission signal (Em540) by the first Em540 signal of the control period to compensate for the background fluorescence. On every 384 well plate 4 series of DMSO control experiments were performed of which 2 with and 2 without control agonist 11H-dibenzo[b,e]azepine-10-carboxylic acid methyl ester or BITC. For intracellular Ca^2+ measurements compound stock solutions (10 or 100 mM) were further diluted in DMSO in order to obtain finally 1% DMSO in the extracellular solution.

IC50 [nM]	Structure (SMILES)
~128	COc1cccc(C2NC(=S)NC3=C2C(=O)c2ccccc23)c1 (stereo not shown) [compound 1]
~76	COc1cccc([C@H]2NC(=S)NC3=C2C(=O)c2ccccc23)c1 [compound 2]
> 10000	COc1cccc([C@@H]2NC(=S)NC3=C2C(=O)c2ccccc23)c1 [compound 3]
~6030	COc1cccc(C2NC(=O)N(Cc3ccccc3)C3=C2C(=O)c2ccccc23)c1 (stereo not shown) [compound 4]
~2780	COc1cc(OC)cc(C2NC(=S)NC3=C2C(=O)c2ccccc23)c1 (stereo not shown) [compound 5]
~636	O=C1C2=C(NC(=S)NC2c2cccc(O)c2)c2ccccc21 (stereo not shown) [compound 6]
47	COCCCOc1cccc(C2NC(=S)NC3=C2C(=O)c2ccccc23)c1 (stereo not shown) [compound 7]
~1060	O=C1C2=C(NC(=S)NC2c2cccc(F)c2)c2ccccc21 (stereo not shown) [compound 8]
> 10000	COc1cccc(C2NC(=S)NC3=C2C(=O)c2ccccc23)c1OC (stereo not shown) [compound 9]
~365	COc1ccc(F)c(C2NC(=S)NC3=C2C(=O)c2ccccc23)c1 (stereo not shown) [compound 10]
495	O=C1C2=C(NC(=S)NC2c2cccc(Br)c2)c2ccccc21 (stereo not shown) [compound 11]
~4410	O=C1C2=C(NC(=S)NC2c2cccc3c2OCO3)c2ccccc21 (stereo not shown) [compound 12]
213	O=C1C2=C(NC(=S)NC2c2cccc(OCCO)c2)c2ccccc21 (stereo not shown) [compound 13]
~708	O=C1C2=C(NC(=S)NC2c2cccc(CO)c2)c2ccccc21 (stereo not shown) [compound 14]
> 10000	COc1ccc(OC)c(C2NC(=S)NC3=C2C(=O)c2ccccc23)c1 (stereo not shown) [compound 15]
~287	COc1cccc(C2NC(=S)NC3=C2C(=O)c2ccccc23)c1F (stereo not shown) [compound 16]
1320	COCCCOc1cccc([C@H]2NC(=O)NC3=C2C(=O)c2ccccc23)c1 [compound 18]
> 10000	COCCCOc1cccc([C@@H]2NC(=O)NC3=C2C(=O)c2ccccc23)c1 [compound 19]
314	CCCCOc1cccc(C2NC(=S)NC3=C2C(=O)c2ccccc23)c1 (stereo not shown) [compound 21]
1200	CCN(CC)CCOc1cccc(C2NC(=S)NC3=C2C(=O)c2ccccc23)c1 (stereo not shown) [compound 22]
4860	O=C1C2=C(NC(=S)NC2c2cccc(OCCCOc3ccc(F)cc3)c2)c2ccccc21 (stereo not shown) [compound 23]
~685	O=C1C2=C(NC(=S)NC2c2cccc(OCCCCO)c2)c2ccccc21 (stereo not shown) [compound 25]
557	CC(=O)OCCCCOc1cccc(C2NC(=S)NC3=C2C(=O)c2ccccc23)c1 (stereo not shown) [compound 26]
> 10000	COc1cccc(C2C3=C(NC(=S)N2C)c2ccccc2C3=O)c1 (stereo not shown) [compound 27]
~85	COc1cccc(C2NC(=S)N(C)C3=C2C(=O)c2ccccc23)c1 (stereo not shown) [compound 28]
~13	COCCCOc1cccc([C@H]2NC(=S)NC3=C2C(=O)c2ccccc23)c1 [compound 29]
> 10000	COCCCOc1cccc([C@@H]2NC(=S)NC3=C2C(=O)c2ccccc23)c1 [compound 30]
> 10000	O=C1C2=C(NC(=S)NC2c2cccc(-c3ccc(C(F)(F)F)cc3)c2)c2ccccc21 (stereo not shown) [compound 31]

Structure (SMILES)	IC50 [nM]
O=C1C2=C(NC(=S)NC2c2cncc(Br)c2)c2ccccc21 (stereo not shown) [compound 32]	1670
